# What was measured:
# [1] = design: species or system mice (129×1 strain); details: mouse, in vivo
# Description: Another essential requirement of drug development is the ability of the peptide to cross the BBB and impact on targeted tissue. To measure the ability of 15merTNP and peptide analogue MP2 to cross the BBB, intracerebroventricular (i.c.v) delivery was assessed. The use of i.c.v injections on animal models allows for high doses to be delivered straight to the ventricular spaces where it can cross the parenchyma layer to the brain matter.
# For i.c.v injections, control mice (129×1 strain) were anesthetized with intraperitoneal ketamine/xylazine at a dose of 10 ml/kg and then administered with 200 μg of either peptide (90 nmol). Both radioactive (^3H-labelled; hot) and non-radioactive (cold) was used to allow physiological doses of peptide to be delivered.
# To determine whether the peptides had effectively penetrated into the brain parenchyma, a capillary depletion experiment was performed. After 25 min post injection the animal was sacrificed and the brain removed. This was homogenized and centrifuged for 10 min at 13000 rpm at 4° C. resulting in a supernatant containing predominately radioactivity from the cortex and a pellet with radioactivity from the capillaries and endothelium. A comparison of radioactivity in each sample was conducted to assess percentage of peptide movement into the cortex. The amount of radioactivity in the capillary pellet of mice that were perfused and not perfused with saline solution was compared to determine the percentage of peptide bound to the luminal surface of the capillaries and sequestered by brain endothelial cells.
# A detailed necropsy was performed on each animal following perfusion to thoroughly assess peptide movement throughout peripheral organs, central nervous tissue and blood. […] Thus the concentration of labelled tritium could be measured per mass of sample and using this and the known ratio of non-labelled peptide present, the concentration of total peptide could be determined.
# The pharmacokinetic profile of peptide analogue MP2 over four time points, post i.c.v injection into the CNS was determined. […]
# human Aβ1-42 = human Aβ1-42 (Homo sapiens, UniProt P05067); assay: DCF fluorescence assay of H2O2 production (SOD-like activity) by human Aβ1-42; assay type: biochemical; details: P<0.001
# Description: The three candidate peptides (15merTNP, 6merPLP and 6merMTM) were examined to determine whether they could attenuate Aβ's SOD-like activity in vitro. A DCF fluorescence assay was used to assess the efficacy of these peptides on altering the production of physiological (brain) concentrations (200 nM) of human Aβ1-42.
# Aβ species were prepared and the assay run as described previously (i.e. Aβ1-42 at 200 nM and Copper and Dopamine concentrations remain unchanged). Peptide analogue MP2 (SEQ ID NO:2) was added to Aβ1-42+Cu solutions at ratios ranging from 0.005:1 to 10.0:1 (i.e. a ration of 0.005:1 would contain 1 nM of respective peptide). The peptide was dissolved in PBS pH7.5. The effect of MP2 on H2O2 production by human Aβ1-42 was determined in triplicate in three separate experiments (i.e. n=9) for doses ranging from 100 to 2000 nM (FIG. 1). These were compared against the level of H2O2 produced by human Aβ1-42 [test peptide analogue MP2+positive control peptide 15merTNP; three experiments done in triplicate, […]]. All data are presented as means±SEM.
# For all assays run, the 15merTNP peptide (SEQ ID NO: 3), was included as a positive control for the assay and for comparing its activity with that of the modelled peptide analogue MP2. The effect of 15merTNP (200 nM) on H2O2 production by human Aβ1-42, was determined in triplicate in each of the 12 DCF assays (i.e. n=36) performed in this study.
# human Aβ42 = assay: MTS cell viability assay of MP2 analogues, cells treated with human Aβ42 (20 μM); assay type: cell-based; details: peptide 80-400 μM
# Description: FIG. 7 illustrates the effect of various peptide analogues of the peptide analogue of SEQ ID NO:2 on cell viability associated with human Aβ1-42. Cells were treated with human Aβ42 peptide (20 μM) in the absence or presence of increasing doses of MP2, MP4, MP5 or MP6 (n=6, for each peptide). Cell viability was assessed by the MTS assay.
# Cells were treated with human Aβ42 peptide (20 μM) in the absence or presence of increasing doses of MP2, MP4, MP5 or MP6 (n=6, for each peptide). Cell viability was assessed by the MTS assay.
# Chain of human Aβ1-42 (P05067 672-713): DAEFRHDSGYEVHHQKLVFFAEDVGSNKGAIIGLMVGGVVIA
substance,measurement,setting,value
"Ac-NRTPQMLKR-NH2 [MP2, Ac-Asn-Arg-Thr-Pro-Gln-Met-Leu-Lys-Arg-NH2]",crossing of the blood brain barrier,[1],poorly
same,peptide removed from the CNS,[1],99%
same,H2O2 levels produced by human Aβ1-42,human Aβ1-42; 100 and 200 nM peptide,significant reduction
same,H2O2 levels produced by human Aβ1-42,human Aβ1-42; peptide doses ≧1000 nM,significantly increased
same,cell viability following treatment with human Aβ42,human Aβ42,significantly increased
